Measured values: PubChem BioAssay (NCI)
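Abbreviation: GI50, concentration required for 50% inhibition of growth. TGI: concentration producing complete growth inhibition.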

Key:
Experiment in all cases: growth of human tumour cells (NCI), 384-well format; in the data active means GI50 below about 0.43 µM; inactive means the rest
MDA-MB-468 breast = test system: MDA-MB-468 breast
IGROV1 ovarian = test system: IGROV1 ovarian
PC-3 prostate = test system: PC-3 prostate
HCT-15 colon = test system: HCT-15 colon
KM12 colon = test system: KM12 colon
UACC-257 melanoma = test system: UACC-257 melanoma
RXF 393 renal = test system: RXF 393 renal
NCI-H460 NSCLC = test system: NCI-H460 NSCLC
NCI/ADR-RES ovarian = test system: NCI/ADR-RES ovarian
OVCAR-3 ovarian = test system: OVCAR-3 ovarian
OVCAR-8 ovarian = test system: OVCAR-8 ovarian
MCF7 breast = test system: MCF7 breast
SK-MEL-28 melanoma = test system: SK-MEL-28 melanoma
DU-145 prostate = test system: DU-145 prostate
NCI-H23 lung = test system: NCI-H23 lung
U251 glioblastoma = test system: U251 glioblastoma
MOLT-4 leukemia = test system: MOLT-4 leukemia
786-0 renal = test system: 786-0 renal
SF-539 CNS = test system: SF-539 CNS
CCRF-CEM leukemia = test system: CCRF-CEM leukemia
MDA-MB-231 breast = test system: MDA-MB-231 breast
CAKI-1 renal = test system: CAKI-1 renal
M14 melanoma = test system: M14 melanoma
ACHN renal = test system: ACHN renal
MDA-MB-435 melanoma = test system: MDA-MB-435 melanoma
HT29 colon = test system: HT29 colon
SK-OV-3 ovarian = test system: SK-OV-3 ovarian
SK-MEL-2 melanoma = test system: SK-MEL-2 melanoma
HCC-2998 colon = test system: HCC-2998 colon
NCI-H522 lung = test system: NCI-H522 lung
COLO 205 colon = test system: COLO 205 colon
BT-549 breast = test system: BT-549 breast
HS 578T breast = test system: HS 578T breast
RPMI-8226 leukemia = test system: RPMI-8226 leukemia
HOP-62 NSCLC = test system: HOP-62 NSCLC
A498 renal = test system: A498 renal
NCI-H322M lung = test system: NCI-H322M lung
NCI-H226 lung = test system: NCI-H226 lung
SR leukemia = test system: SR leukemia
SNB-19 CNS = test system: SNB-19 CNS
TK-10 renal = test system: TK-10 renal
UACC-62 melanoma = test system: UACC-62 melanoma
SN12C renal = test system: SN12C renal
SW-620 colon = test system: SW-620 colon
SF-268 CNS = test system: SF-268 CNS
T-47D breast = test system: T-47D breast
SNB-75 CNS = test system: SNB-75 CNS
OVCAR-5 ovarian = test system: OVCAR-5 ovarian
OVCAR-4 ovarian = test system: OVCAR-4 ovarian
MALME-3M melanoma = test system: MALME-3M melanoma
SF-295 CNS = test system: SF-295 CNS
A549 NSCLC = test system: A549 NSCLC
HOP-92 NSCLC = test system: HOP-92 NSCLC
HL-60(TB) leukemia = test system: HL-60(TB) leukemia
SK-MEL-5 melanoma = test system: SK-MEL-5 melanoma
EKVX NSCLC = test system: EKVX NSCLC

CC1(C)CC(O)CC(C)(C)N1O
> 100 µM: TGI (MDA-MB-468 breast) | TGI (IGROV1 ovarian) | TGI (PC-3 prostate) | TGI (HCT-15 colon) | TGI (KM12 colon) | TGI (UACC-257 melanoma) | TGI (RXF 393 renal) | TGI (NCI-H460 NSCLC) | TGI (NCI/ADR-RES ovarian) | TGI (OVCAR-3 ovarian) | TGI (OVCAR-8 ovarian) | TGI (MCF7 breast) | TGI (SK-MEL-28 melanoma) | TGI (DU-145 prostate) | TGI (NCI-H23 lung) | TGI (U251 glioblastoma) | TGI (MOLT-4 leukemia) | TGI (786-0 renal) | TGI (SF-539 CNS) | TGI (CCRF-CEM leukemia) | TGI (MDA-MB-231 breast) | TGI (CAKI-1 renal) | TGI (M14 melanoma) | TGI (ACHN renal) | TGI (MDA-MB-435 melanoma) | TGI (HT29 colon) | TGI (SK-OV-3 ovarian) | TGI (SK-MEL-2 melanoma) | TGI (HCC-2998 colon) | TGI (NCI-H522 lung) | TGI (COLO 205 colon) | TGI (BT-549 breast) | TGI (HS 578T breast) | TGI (RPMI-8226 leukemia) | TGI (HOP-62 NSCLC) | TGI (A498 renal) | TGI (NCI-H322M lung) | TGI (NCI-H226 lung) | TGI (SR leukemia) | TGI (SNB-19 CNS) | TGI (TK-10 renal) | TGI (UACC-62 melanoma) | TGI (SN12C renal) | TGI (SW-620 colon) | TGI (SF-268 CNS) | TGI (T-47D breast) | TGI (SNB-75 CNS) | TGI (OVCAR-5 ovarian) | TGI (OVCAR-4 ovarian) | TGI (MALME-3M melanoma) | TGI (SF-295 CNS) | TGI (A549 NSCLC) | TGI (HOP-92 NSCLC) | TGI (HL-60(TB) leukemia) | TGI (SK-MEL-5 melanoma) | TGI (EKVX NSCLC)
inactive: GI50 (MDA-MB-468 breast) 29.8 µM | GI50 (IGROV1 ovarian) > 100 µM | GI50 (PC-3 prostate) > 100 µM | GI50 (HCT-15 colon) > 100 µM | GI50 (KM12 colon) > 100 µM | GI50 (UACC-257 melanoma) > 100 µM | GI50 (RXF 393 renal) > 100 µM | GI50 (NCI-H460 NSCLC) > 100 µM | GI50 (NCI/ADR-RES ovarian) > 100 µM | GI50 (OVCAR-3 ovarian) 71.7 µM | GI50 (OVCAR-8 ovarian) > 100 µM | GI50 (MCF7 breast) > 100 µM | GI50 (SK-MEL-28 melanoma) > 100 µM | GI50 (DU-145 prostate) > 100 µM | GI50 (NCI-H23 lung) > 100 µM | GI50 (U251 glioblastoma) > 100 µM | GI50 (MOLT-4 leukemia) 44.5 µM | GI50 (786-0 renal) > 100 µM | GI50 (SF-539 CNS) > 100 µM | GI50 (CCRF-CEM leukemia) 47.2 µM | GI50 (MDA-MB-231 breast) > 100 µM | GI50 (CAKI-1 renal) > 100 µM | GI50 (M14 melanoma) > 100 µM | GI50 (ACHN renal) > 100 µM | GI50 (MDA-MB-435 melanoma) > 100 µM | GI50 (HT29 colon) > 100 µM | GI50 (SK-OV-3 ovarian) > 100 µM | GI50 (SK-MEL-2 melanoma) > 100 µM | GI50 (HCC-2998 colon) > 100 µM | GI50 (NCI-H522 lung) > 100 µM | GI50 (COLO 205 colon) > 100 µM | GI50 (BT-549 breast) > 100 µM | GI50 (HS 578T breast) > 100 µM | GI50 (RPMI-8226 leukemia) > 100 µM | GI50 (HOP-62 NSCLC) > 100 µM | GI50 (A498 renal) > 100 µM | GI50 (NCI-H322M lung) > 100 µM | GI50 (NCI-H226 lung) > 100 µM | GI50 (SR leukemia) > 100 µM | GI50 (SNB-19 CNS) > 100 µM | GI50 (TK-10 renal) > 100 µM | GI50 (UACC-62 melanoma) > 100 µM | GI50 (SN12C renal) > 100 µM | GI50 (SW-620 colon) > 100 µM | GI50 (SF-268 CNS) > 100 µM | GI50 (T-47D breast) > 100 µM | GI50 (SNB-75 CNS) > 100 µM | GI50 (OVCAR-5 ovarian) > 100 µM | GI50 (OVCAR-4 ovarian) 19.9 µM | GI50 (MALME-3M melanoma) > 100 µM | GI50 (SF-295 CNS) > 100 µM | GI50 (A549 NSCLC) > 100 µM | GI50 (HOP-92 NSCLC) > 100 µM | GI50 (HL-60(TB) leukemia) > 100 µM | GI50 (SK-MEL-5 melanoma) > 100 µM | GI50 (EKVX NSCLC) > 100 µM
